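Interpolation was linear, between the two tested concentrations surrounding the appropriate level; five concentrations were tested over 48 hours in 96-well plates. TGI denotes the concentration required for complete inhibition of growth.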 Where a SMILES comes first, the peptide text is derived from it. The star is where a group is joined. Boc = CC(C)(C)OC(=O)*
How the values were obtained:
Experiment in all cases: inhibition of tumour cell growth, NCI panel, 48 h
[1] = test system: COLO 205 colon
[2] = test system: A549 NSCLC
[3] = test system: SNB-19 CNS
[4] = test system: HCT-15 colon
[5] = test system: MDA-MB-435
[6] = test system: MOLT-4 leukemia
[7] = test system: SK-MEL-5 melanoma
[8] = test system: IGROV1 ovarian
[9] = test system: UACC-62 melanoma

Structure (SMILES)	TGI [1]	TGI [2]	TGI [3]	TGI [4]	TGI [5]	TGI [6]	TGI [7]	TGI [8]	TGI [9]
Cc1cc(Nc2ccc(N=Nc3ccc(O)c4ncccc34)cc2)nc(C)n1	40.4 µM	38.3 µM	> 100 µM	36 µM	29.6 µM	48.3 µM	26.3 µM	32 µM	24.6 µM
O=c1c2ccccc2n2nnc3ccc(NCCCNCCNCCCNc4ccc5nnn6c7ccccc7c(=O)c4c56)c1c32	> 50 µM	20.8 µM	35.3 µM	> 26.4 µM	> 50 µM	> 21.2 µM	> 50 µM	8.58 µM	> 50 µM
Cn1c(-c2ccc[se]2)ccc1-c1ccc(CO)[se]1	6.01 µM	> 100 µM	> 100 µM	> 63.8 µM	> 67.7 µM	98.2 µM	> 100 µM		> 100 µM
OCC(Cn1cncn1)(c1ccc(F)cc1F)n1cncn1 (stereo unspecified)	> 100 µM	> 100 µM	> 100 µM	> 100 µM	> 100 µM	> 100 µM	> 100 µM	> 100 µM	> 100 µM
S=c1nc2[nH]c3ccc(Br)cc3c2n[nH]1	> 100 µM	> 100 µM	> 100 µM	> 100 µM	38.4 µM	> 100 µM	> 100 µM	> 100 µM	> 100 µM
CC(NC1=NCCO1)c1cccc([N+](=O)[O-])c1 (stereo unspecified)	> 100 µM	> 100 µM	> 100 µM	> 100 µM	> 100 µM	> 100 µM	> 100 µM	> 100 µM	> 100 µM
CN(C)CCOC(=O)c1ccc(N)cc1	> 100 µM	> 100 µM	> 100 µM	> 100 µM	> 100 µM	61.5 µM	> 100 µM	74.9 µM	> 100 µM
CC1(C)[C@@H](Cn2cnc3c(=O)[nH]c(N)nc32)CC[C@@]1(C)CO		> 100 µM	> 100 µM	> 100 µM	> 100 µM	> 100 µM	> 100 µM		> 100 µM
O=C(Nc1nnc(-c2ccccc2)o1)C(SC(=S)N1CCOCC1)c1ccccc1 (stereo unspecified)	> 100 µM	> 100 µM	> 100 µM	> 100 µM	> 100 µM	83.1 µM	38.7 µM	> 100 µM	
CCOC(=O)CCc1c(C(=O)OCC)[nH]c(/C=C2\NC(=O)C(C)=C2CC)c1C	> 100 µM	> 100 µM		> 100 µM	> 100 µM	> 100 µM		23.7 µM	44.9 µM
O=C(OCCN1CCCCC1)C(c1ccccc1)C1(O)CCSCC1 (stereo unspecified)	> 100 µM	> 100 µM	> 100 µM	> 100 µM	> 100 µM	> 100 µM	> 100 µM	> 100 µM	> 100 µM
COC(=O)C(Cc1c[nH]c2ccccc12)NC(=O)C(Cc1c[nH]c2ccccc12)NC(=O)C(Cc1c[nH]c2ccccc12)NC(=O)C(Cc1c[nH]c2ccccc12)NC(=O)OC(C)(C)C (stereo unspecified) (Boc-WWWW-OMe; configuration not given here)		> 100 µM	> 100 µM	> 100 µM	> 100 µM	20.7 µM	> 100 µM	> 100 µM	38.4 µM
